Experimental data: patent EP0391644B1, “Aryl-substituted rhodanine derivatives” (ELI LILLY AND COMPANY, priority 1989, dated 1990)
Where “and” joins values, the source holds several entries; their conditions need not be identical. Identical values can stand only once.

How the values were obtained:
[1] = system: adjuvant-induced arthritis; test: Developing Adjuvant-Induced Arthritis Test in Rats; format: in vivo, male Lewis-Wistar rats; conditions: Rattus norvegicus, po, 720 h; 50 mg/kg P.O. x 29; AUC of uninjected paw volumes, Days 16 through 30; read-out: % Inhibition of Uninjected Paw Volume Inflammation
[2] = system: Collagen-Induced Arthritis; test: Collagen-Induced Arthritis Assay; format: in vivo, inbred Lewis male rats; conditions: 5 days per week, hindpaw volume
Procedure: Type II collagen was isolated from bovine articular cartilage by the method of Strawich and Nimni [Biochemistry, 10, 3905 (1971)]. The collagen was dissolved in 0.1 M acetic acid and stored at -20°C. Type II collagen solution was diluted to 2 mg/ml concentration and emulsified thoroughly with an equal volume of incomplete Freund's adjuvant (ICFA). The emulsion containing approximately 0.5 mg of collagen was injected intradermally on day 0 to groups of 6 inbred Lewis male rats (Charles River Breeders; 170-200 g) at various sites in the dorsal area. The hindpaw volumes of each rat were measured and recorded three times a week throughout the test period to assess the inflammatory reaction. The test group animals received compounds under test as suspensions in carboxymethylcellulose vehicle, by oral gavage, 5 days per week (Monday-Friday), beginning on day 1. Control animals received vehicle without a test compound. At the end of the test (day 28 or 30), the blood of these animals was drawn by cardiac puncture and the serum anti-type II collagen antibody levels were estimated by passive hemaglutination technique, using glutaraldehyde treated sheep red cells, to which type II collagen is conjugated [Avrameas et al., Immunochemistry, 6, 67 (1969); Andriopoulos et al., Arth. Rheum., 19, 613 (1976)]. The cellular response or delayed-type hypersensitivity response to type II collagen was measured by the radiometric ear index assay [Kostiala, Immunology, 33, 561 (1977)]. In certain experiments, the bone damage occurring because of immunization with type II collagen and the effects of drugs were determined from the radiographs of the hind-paws of two or three representative animals from each group. Injections of ICFA without collagen II were employed in some rats as a negative control; these rats received only carboxymethycellulose vehicle during the test.
The % inhibition was calculated according to the following formula: % inhibition = [1-(Vt - Vv)/(Vc - Vv)] X 100 [formula] where Vt is the hindpaw volume of a compound-treated animal (test group), Vc is the hindpaw volume of a non-compound-treated animal (carboxymethylcellulose vehicle only-the control group), and Vv is the hindpaw volume of a vehicle (carboxymethylcellulose) treated animal which received ICFA with no collagen II (negative control group).

[3] = system: inflammation; test: Carrageenin Assay; format: in vivo; conditions: Rattus norvegicus, po, carrageenin-injected hind paws of rats, read-out: Percent Inhibition; for inhibition in vivo at 50 mg/kg: 50 mg/kg orally by gavage
Procedure: The compounds were evaluated for antiinflammatory activity in the test method described by C.A. Winter, Proc. Soc. Exp. Biol. Med., 111, 544 (1962). In this test, inflammation is created by injecting carrageenin into the hind paws of rats. Test compounds are administered prior to injection to determine percent inhibition of the subsequent inflammation in comparison with control animals.

[4] = system: Dystrophic mice (dy/dy); test: Muscular Dystrophy Animal Model; format: in vivo
Procedure: Dystrophic mice (dy/dy) were obtained from Jackson Laboratories after weaning (approximately 21 days) and treatment with the compounds shown in Table V was begun at the first sign of dystrophy. The compounds that were tested were administered in the diet and lifespan was measured during the course of treatment. The food and water sources were located in different parts of the cage requiring the animals to walk from the food source to the water source to survive.

[5] = 0.03 percent by weight of compound in diet

SMILES | inhibition in vivo at 50 mg/kg [1] [%] | % inhibition ([2]; 50 mg/kg by oral gavage) | inhibition in vivo at 30 mg/kg ([3]; 30 mg/kg orally by gavage) [%] | Average Life Span [4, 5] [days] | Average Life Span ([4]; 0.08 percent by weight of compound in diet) | Average Life Span ([4]; 0.1 percent by weight of compound in diet) [days] | Average Life Span ([4]; 0.3 percent by weight of compound in diet) [days] | % inhibition ([2]; 30 mg/kg by oral gavage) | inhibition in vivo at 50 mg/kg [3] [%]
CC(C)(C)c1cc(C=C2SC(=S)NC2=O)cc(C(C)(C)C)c1O [Example 1, 5-{[3,5-bis(1,1-dimethylethyl)-4-hydroxyphenyl]-methylene}-2-thioxo-4-thiazolidinone] | 41 | 100% and 53% | 67 |  |  |  |  |  | 
CC(C)(C)c1cc(C=C2SCNC2=O)cc(C(C)(C)C)c1O [Example 2, 5-{[3,5-bis(1,1-dimethylethyl)-4-hydroxyphenyl]methylene}-4-thiazolidinone] | 81 | 100% |  | 57 | 116 days and 73 days | 108 | 74 | 91% and 50% | 46
CC(C)(C)c1cc(CC2SCNC2=O)cc(C(C)(C)C)c1O (stereo not shown) [Example 3, 5-{[3,5-bis(1,1-dimethylethyl)-4-hydroxyphenyl]methyl}-4-thiazolidinone] | 10 | 79% |  |  |  |  |  |  | 12
COC(=O)N1CSC(=Cc2cc(C(C)(C)C)c(O)c(C(C)(C)C)c2)C1=O [Example 4, 5-{[3,5-bis(1,1-dimethylethyl)-4-hydroxyphenyl]methylene}-4-oxo-3-thiazolidinecarboxylic acid, methyl ester] | 23 | 5% |  |  |  |  |  |  | 65
CCCCN1CSC(=Cc2cc(C(C)(C)C)c(O)c(C(C)(C)C)c2)C1=O [Example 16, 5-{[3,5-bis(1,1-dimethylethyl)-4-hydroxyphenyl]methylene}-3-butyl-4-thiazolidinone] | 18 |  |  |  |  |  |  |  | 40
CC(C)(C)c1cc(C=C2SCOC2=O)cc(C(C)(C)C)c1O [Example 17, 4-{[3,5-bis(1,1-dimethylethyl)-4-hydroxyphenyl]methylene}-1,3-oxothiolan-5-one] | 61 |  |  | 112 |  |  |  |  | 18
